SMILES strings stand for the structures.

The target in assay [1] is T1, MAPKAPK2 Recombinant Human Protein (Homo sapiens, UniProt P49137).
T1 construct: purchased ThermoFisher pv3317
Nature of the assay: MK2 kinase assay (Z'-LYTE kinase assay kit). The settings on record: inhibition of MK2 biochemical activity; 90 min incubation at room temperature. The essentials:
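Z'-LYTE FRET assay with recombinant human MAPKAPK2 and peptide substrate; compound and ATP added, kinase reaction 90 min at room temperature, then development 60 min before stop. Coumarin (445 nm) and fluorescein (520 nm) emissions read at 400 nm excitation.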

Assay [2] deals with THP-1 cells. The experiment in a line: THP-1 cell assay: LPS-stimulated pSer78-Hsp27 ELISA. Type of assay: cell-based. The settings on record: Homo sapiens, PMA-differentiated THP-1 cells, compound 60 min before 20 ng/mL LPS for 30 min. From the text:
Materials and Reagents for Measuring Activity in THP-1 Cells: • 1) THP-1 cells (Cell bank of Shanghai) • 2) PMA (Sigma, Cat.No. P1585) • 3) LPS (Sigma, Cat.No. L4516) • 4) 96-well tissue-culture treated plate (Grenier, Cat.No. 655180) • 5) FBS (Thermofisher, Cat.No. 10100147) • 6) Complete EDTA-free protease inhibitor Cocktail (Roche, Cat.No. 4693132001) • 7) PhosSTOP (Roche, Cat.No. 4906845001) • 8) Phosphor-Hsp27 (Ser78) Sandwich Elisa kit (CST, Cat.No. 7295)
Cell Assay Procedure: • 1) Day 0: THP-1 cells are seeded at 50K/well in complete media (1640+10% FBS+50 μM β-ME)+20 ng/mL PMA in 96-well plate • 2) Day 1: PMA containing media is removed after 24 h incubation (37° C./5% CO2), and replaced with complete growth media. Cells are incubated an additional 48 h to recover. • 3) Day 3: Cells are incubated with or without compounds at indicated concentrations for 60 min, prior to addition of 20 ng/mL LPS. Cells are stimulated for 30 min with LPS, washed 1× with ice cold PBS, lysed on ice in Lysis buffer provided in ELISA kit with Roche protease & phosphatase inhibitors. Extracts are clarified by refrigerated centrifugation & stored at −80° C. until pHsp27/total Hsp27 ELISAs • 4) Day 3 or Day 4: Cell Signaling Technology ELISA is run for pSer78-Hsp27 on lysates diluted to approximately 2.5 μg/well. • 5) The absorbance at 450 nm was read in a SpectraMax plus plate reader (Molecular Devices). Data was processed using GraphPad prism 8.0.

T1 sequence (P49137 whole entry): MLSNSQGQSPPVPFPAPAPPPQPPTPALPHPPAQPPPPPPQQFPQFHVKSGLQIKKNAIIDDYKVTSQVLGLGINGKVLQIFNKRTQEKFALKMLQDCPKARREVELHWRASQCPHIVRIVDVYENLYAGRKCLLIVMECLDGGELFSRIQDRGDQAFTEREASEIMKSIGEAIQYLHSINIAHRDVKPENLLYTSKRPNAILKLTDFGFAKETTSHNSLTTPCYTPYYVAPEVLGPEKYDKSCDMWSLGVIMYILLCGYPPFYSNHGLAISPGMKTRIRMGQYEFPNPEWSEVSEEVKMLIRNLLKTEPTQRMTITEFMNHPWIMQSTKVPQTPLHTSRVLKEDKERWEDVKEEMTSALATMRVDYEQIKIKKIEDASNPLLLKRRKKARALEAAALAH

With `CN1CC2(CCN(c3ccc4c(c3)Cn3cc(-c5ccc(C#N)cc5)cc3-c3nccn3-4)C2=O)C1` [Example 24, 4-(7-(2-Methyl-5-oxo-2,6-diazaspiro[3.4]octan-6-yl)-911-benzo[e]imidazo [2,1-c]pyrrolo[1,2-a][1,4]diazepin-12-yl)benzonitrile], the IC50 in assay [1] and in assay [2] was less than 50 nM each time.
Turning to `CN(C)[C@H]1CCN(c2ccc3c(c2)Cn2cc(-c4ccc(C#N)cc4)cc2-c2nccn2-3)C1=O` [Example 25, (S)-4-(7-(3-(Dimethylamino)-2-oxopyrrolidin-1-yl)-9H-benzo[e]imidazo [2,1-c]pyrrolo[1,2-a][1,4]diazepin-12-yl)benzonitrile], the IC50 in assay [1] lay within 50 to 100 nM; in assay [2], 300 to 400 nM.
In the case of `N#Cc1ccc(-c2cc3n(c2)Cc2cc(N4C[C@@H](CN5CCC(F)C5)CC4=O)ccc2-n2ccnc2-3)cc1` (stereo partly drawn) [Example 26, 4-(7-((4R)-4-((3-Fluoropyrrolidin-1-yl)methyl)-2-oxopyrrolidin-1-yl)-9H-benzo[e]imidazo[2,1-c]pyrrolo[1,2-a][1,4]diazepin-12-yl)benzonitrile], the IC50 in assay [1] was in the range of 50 to 100 nM; in assay [2], 100 to 200 nM.
Take `N#Cc1ccc(-c2cc3n(c2)Cc2cc(N4C[C@@H](CN5CCC5)CC4=O)ccc2-n2ccnc2-3)cc1` [Example 27]: the IC50 in assay [1] and in assay [2] was less than 50 nM throughout.
Turning to `N#Cc1ccc(-c2cc3n(c2)Cc2cc(N4C[C@@H](CN5CC(F)C5)CC4=O)ccc2-n2ccnc2-3)cc1` [Example 28], the IC50 in assay [1] was less than 50 nM; in assay [2], 500 to 1000 nM.
On to `N#Cc1ccc(-c2cc3n(c2)Cc2cc(N4C[C@@H](CN5CC(O)C5)CC4=O)ccc2-n2ccnc2-3)cc1` [Example 29], for which the figures for the IC50 in assay [1] and in assay [2] were less than 50 nM and 50 to 100 nM, respectively.
Consider `CN(C)CC1(C)CC(=O)N(c2ccc3c(c2)Cn2cc(-c4ccc(C#N)cc4)cc2-c2nccn2-3)C1` (centres unmarked) [Example 33, 4-(7-(4-((Dimethylamino)methyl)-4-methyl-2-oxopyrrolidin-1-yl)-9H-benzo [e]imidazo[2,1-c]pyrrolo[1,2-a][1,4]diazepin-12-yl)benzonitrile], for which the IC50 in assay [1] was less than 50 nM; in assay [2], 400 to 500 nM.
In the case of `CN(C)CC1CCN(c2ccc3c(c2)Cn2cc(-c4ccc(C#N)cc4)cc2-c2nccn2-3)C1=O` (centres unmarked) [Example 34, 4-(7-(3-((Dimethylamino)methyl)-2-oxopyrrolidin-1-yl)-9H-benzo[e]imidazo [2,1-c]pyrrolo[1,2-a][1,4]diazepin-12-yl)benzonitrile], the IC50 in assay [1] and in assay [2] was less than 50 nM in each case.
Turning to `CN(CCO)CC1CCN(c2ccc3c(c2)Cn2cc(-c4ccc(C#N)cc4)cc2-c2nccn2-3)C1=O` (centres unmarked) [Example 37], the IC50 in assay [1] and in assay [2] was 50 to 100 nM in each case.
With `CC(C)(N)C[C@H]1CCN(c2ccc3c(c2)Cn2cc(-c4ccc(C#N)cc4)cc2-c2nccn2-3)C1=O` [Example 43, (R)-4-(7-(3-(2-Amino-2-methylpropyl)-2-oxopyrrolidin-1-yl)-9H-benzo[e]imidazo[2,1-c]pyrrolo[1,2-a][1,4]diazepin-12-yl)benzonitrile], the IC50 in assay [1] is less than 50 nM; in assay [2], 300 to 400 nM.
In the case of `CN(C)C[C@H]1[C@@H]2CN(c3ccc4c(c3)Cn3cc(-c5ccc(C#N)cc5)cc3-c3nccn3-4)C(=O)[C@H]12` [Example 46], the IC50 in assay [1] was less than 50 nM; in assay [2] it was 200 to 300 nM.
Regarding `CN(C)CC1CC12CCN(c1ccc3c(c1)Cn1cc(-c4ccc(C#N)cc4)cc1-c1nccn1-3)C2=O` (centres unmarked) [Example 47, 4-(7-(1-((Dimethylamino)methyl)-4-oxo-5-azaspiro[2.4]heptan-5-yl)-9H-benzo[e]imidazo[2,1-c]pyrrolo[1,2-a][1,4]diazepin-12-yl)benzonitrile], the IC50 was less than 50 nM in assay [1] and 100 to 200 nM in assay [2].
On to `CN(C)C[C@H]1C[C@@]12CCN(c1ccc3c(c1)Cn1cc(-c4ccc(C#N)cc4)cc1-c1nccn1-3)C2=O` [Example 48, 4-(7-((1S,3R)-1-((dimethylamino)methyl)-4-oxo-5-azaspiro[2.4]heptan-5-yl)-9H-benzo[e]imidazo[2,1-c]pyrrolo[1,2-a][1,4]diazepin-12-yl)benzonitrile], for which the IC50 in assay [1] is 50 to 100 nM; in assay [2], 200 to 300 nM.
On the same counts, the results for `N#Cc1ccc(-c2cc3n(c2)Cc2cc(N4C[C@@H](C5(N)CC5)CC4=O)ccc2-n2ccnc2-3)cc1` [Example 50] are less than 50 nM and 50 to 100 nM.
Regarding `CC(C)(N)[C@@H]1CC(=O)N(c2ccc3c(c2)Cn2cc(-c4ccc(C#N)cc4)cc2-c2nccn2-3)C1` [Example 53], the figures for the IC50 in assay [1] and in assay [2] were less than 50 nM and 300 to 400 nM, respectively.
In the case of `CN(C)C(C)(C)[C@H]1CC(=O)N(c2ccc3c(c2)Cn2cc(-c4ccc(C#N)cc4)cc2-c2nccn2-3)C1` [Example 54], the IC50 in assay [1] and in assay [2] was less than 50 nM in each case.
With `CC(C)(C1CC(=O)N(c2ccc3c(c2)Cn2cc(-c4ccc(C#N)cc4)cc2-c2nccn2-3)C1)N1CCC1` (centres unmarked) [Example 55, 4-(7-(4-(2-(Azetidin-1-yl)propan-2-yl)-2-oxopyrrolidin-1-yl)-9H-benzo[e]imidazo[2,1-c]pyrrolo[1,2-a][1,4]diazepin-12-yl)benzonitrile], the IC50 in assay [1] and in assay [2] was less than 50 nM in each case.
Turning to `CN(C)C[C@@H]1CN(c2ccc3c(c2)Cn2cc(-c4ccc(C#N)cc4)cc2-c2nccn2-3)C(=O)N1C` [Example 56, (R)-4-(7-(4-((Dimethylamino)methyl)-3-methyl-2-oxoimidazolidin-1-yl)-9H-benzo[e]imidazo[2,1-c]pyrrolo[1,2-a][1,4]diazepin-12-yl)benzonitrile], the IC50 in assay [1] is 50 to 100 nM; in assay [2] it was 200 to 300 nM.
Turning to `CN(C)CCN1CCN(c2ccc3c(c2)Cn2cc(-c4ccc(C#N)cc4)cc2-c2nccn2-3)C1=O` [Example 57, 4-(7-(3-(2-(Dimethylamino)ethyl)-2-oxoimidazolidin-1-yl)-9H-benzo[e]imidazo[2,1-c]pyrrolo[1,2-a][1,4]diazepin-12-yl)benzonitrile], the IC50 in assay [1] and in assay [2] was less than 50 nM throughout.
Take `CN1CC(N2CCN(c3ccc4c(c3)Cn3cc(-c5ccc(C#N)cc5)cc3-c3nccn3-4)C2=O)C1` [Example 58, 4-(7-(3-(1-Methylazetidin-3-yl)-2-oxoimidazolidin-1-yl)-9H-benzo[e]imidazo[2,1-c]pyrrolo[1,2-a][1,4]diazepin-12-yl)benzonitrile]: the half-maximal inhibitory concentration (IC50) in assay [1] and in assay [2] was less than 50 nM throughout.
In the case of `CN(C)[C@H]1C[C@@H](N2CCN(c3ccc4c(c3)Cn3cc(-c5ccc(C#N)cc5)cc3-c3nccn3-4)C2=O)C1` [Example 59], the figures for the IC50 in assay [1] and in assay [2] were less than 50 nM and 50 to 100 nM, respectively.
As for `C[C@H]1[C@@H](CN(C)C)OC(=O)N1c1ccc2c(c1)Cn1cc(-c3ccc(C#N)cc3)cc1-c1nccn1-2` [Example 61, 4-(7-((4S,5R)-5-((Dimethylamino)methyl)-4-methyl-2-oxooxazolidin-3-yl)-9H-benzo[e]imidazo[2,1-c]pyrrolo[1,2-a][1,4]diazepin-12-yl)benzonitrile], the IC50 was in the range of 50 to 100 nM in assay [1] and 300 to 400 nM in assay [2].

What is called IC50 is the concentration needed to halve the response being measured.

Values taken from US20240140958A1, “FUSED QUADRACYCLIC COMPOUNDS, COMPOSITIONS AND USES THEREOF” (Tabomedex Biosciences, Inc., priority 2021, published 2024).
